Molecular target: Tryptophan--tRNA ligase (Mycobacterium tuberculosis (strain ATCC 25618 / H37Rv), UniProt P9WFT3)
Test: Biochemical assay for Mt-TrpRS
Type: functional

Tryptophan--tRNA ligase, sequence (P9WFT3 whole entry): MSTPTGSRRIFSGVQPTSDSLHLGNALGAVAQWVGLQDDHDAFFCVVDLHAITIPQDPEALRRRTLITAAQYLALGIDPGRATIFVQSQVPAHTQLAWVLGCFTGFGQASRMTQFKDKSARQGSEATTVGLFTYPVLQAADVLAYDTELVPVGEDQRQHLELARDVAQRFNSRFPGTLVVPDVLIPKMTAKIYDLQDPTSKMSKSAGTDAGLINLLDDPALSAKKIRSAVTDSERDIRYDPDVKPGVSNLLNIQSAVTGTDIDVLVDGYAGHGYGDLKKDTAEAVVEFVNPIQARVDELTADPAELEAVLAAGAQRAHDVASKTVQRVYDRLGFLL

| Structure (SMILES) | IC50 [µM] |
| --- | --- |
| COCCN(C)C(=O)c1nc2c(s1)CCCN2C | > 195 |
| NC(=O)N1CCc2ncc(CNC(=O)CC3CC3)n2CC1 | > 195 |
| CCc1ncnc2c1CCN(CCOC)CC2 | > 195 |
| Cc1csc(Nc2nccnc2C2CCCN2CC(N)=O)n1 (configuration not stated) | > 195 |
| CS(=O)(=O)CC(=O)N1C[C@H]2CCC[C@@]2(COc2ccccn2)C1 | > 195 |
| COc1cccc(CN2CC(O)CN(C(=O)C(C)(C)C)CC2=O)c1OC (configuration not stated) | > 195 |
| NC(=O)Nc1cc(F)ccc1SCC(F)F | > 195 |
| Cc1cc(C)c(CNC(=O)NCc2nnc3n2CCC3)c(=O)[nH]1 | > 195 |
| O=C1CN(CC2CC2)Cc2nc(NCCc3ccccn3)sc21 | > 195 |
| Cc1ccc(C(=O)NS(=O)(=O)c2cc(Br)ccc2C)c(=O)[nH]1 | > 195 |
| Cn1c(=O)c2cc(C(=O)NCCc3ccccc3)ccc2n(C)c1=O | > 195 |
| Cc1nn(CC(=O)NCc2cc3n(n2)CCCN(CC(C)C)C3)cc1Cl | > 195 |
| CCSc1ncc(Cl)c(C(=O)NC(CCSC)C(=O)O)n1 (configuration not stated) | > 195 |
| O=C(NCc1ccccn1)c1cnc(C2CCCN2)cn1 (configuration not stated) | > 195 |
| O=C(COc1cccc(Cl)c1)N1CCOCC1c1ncon1 (configuration not stated) | > 195 |
| Cc1cnn(-c2ccc(S(N)(=O)=O)cc2F)c1 | > 195 |
| Cc1nc(Nc2nncs2)cc(C2CCCN2C)n1 (configuration not stated) | > 195 |
| O=C(c1cnccn1)N1CCC2(CCCN(Cc3ccoc3)C2)C1 (configuration not stated) | > 195 |
| CNc1cncc(C2CCCN2Cc2cccc(C)n2)n1 (configuration not stated) | > 195 |
| CN1CCC(Cc2cc(Nc3ccccn3)ncn2)CC1 | > 195 |
| O=C(NCC1CC2(CO1)CN(c1ncccn1)C2)C1CCC1 (configuration not stated) | > 195 |
| COc1ccccc1C1=NOC(CC2(C(=O)O)CCOCC2)C1 (configuration not stated) | > 195 |
| CN(C)C(CNCc1nc(-c2ccsc2)no1)c1ccsc1 (configuration not stated) | > 195 |

| Structure (SMILES) | IC50 [µM] |
| --- | --- |
| CS(=O)(=O)NCc1cn2c(n1)CN(Cc1cccnc1)CC2 | > 195 |
| CSCC(C)(O)CNc1ncccc1I (configuration not stated) | > 195 |
| CN(C)c1ncccc1CNC(=O)N1CCCC1CN1CCCC1 (configuration not stated) | > 195 |
| CCCn1cc(CN2CCCC2c2nccc(CN(C)C)n2)cn1 (configuration not stated) | > 195 |
| COCC1CC2(CCN(C(=O)c3cncc(C)c3)CC2)CO1 (configuration not stated) | > 195 |
| C[C@H](N)Cn1nc(-c2cccs2)oc1=O | > 195 |
| CCC(CC)c1nnc(NC(=O)NC(C)Cn2cccn2)s1 (configuration not stated) | > 195 |
| CC(=O)N1CCO[C@@H]2CN(Cc3cccc(Cl)c3)C[C@@H]2C1 | > 195 |
| Cc1noc(C)c1CN(Cc1cccs1)C1CCS(=O)(=O)C1 (configuration not stated) | > 195 |
| O=C(O)C1(Cc2cccc(-c3ccc(F)cc3)c2)CCOCC1 | > 195 |
| OCCN1CCN(Cc2cnc3c(-c4ccccc4)cnn3c2)CC1 | > 195 |
| COCCN1CCC(NCc2ccc(F)cc2F)C1 (configuration not stated) | > 195 |
| c1ccc(CO[C@H]2C[C@@H]3CN(Cc4cccnc4)C[C@@H]3C2)cc1 | > 195 |
| CNC(=O)c1cnc2c(C)csc2c1 | > 195 |
| O=C(NCc1cncc2c1CCN(CC1CCOC1)C2)c1ccco1 (configuration not stated) | > 195 |
| CCn1cc(CN2CCC(c3[nH]ncc3S(C)(=O)=O)C2)cn1 (configuration not stated) | > 195 |
| CCOCC(=O)N1C[C@@H]2CC[C@H](Oc3ccccc3)[C@@H]2C1 | > 195 |
| Cc1nc(C2CCCN2C(=O)CC2CCCC2)ncc1C(N)=O (configuration not stated) | > 195 |
| CN(C)C(=O)c1cncnc1-c1ccc(CNC(=O)C2CCCO2)cc1 (configuration not stated) | > 195 |
| CC(=O)N1CCCC1c1cccc(Oc2ccccc2F)n1 (configuration not stated) | > 195 |
| COCCc1ncc(CNC2(c3ccc(Cl)cc3Cl)CC2)cn1 | > 195 |
| O=C(CCn1ccnc1)N1C[C@@H](O)[C@H](Oc2cccc(F)c2)C1 | > 195 |
| CSc1ncc(C(=O)NCc2cc3n(n2)CCCN(CC(C)C)C3)cn1 | > 195 |

| Structure (SMILES) | IC50 [µM] |
| --- | --- |
| CC1(C(=O)N2CCOCC2)CN(Cc2ncc[nH]2)CCO1 (configuration not stated) | > 195 |
| Cn1cnc(S(=O)(=O)N2CC3(CCN(c4ccccc4)C3)C2)c1 | > 195 |
| Cc1cn(Cc2ccc(F)c(F)c2)nc1N | > 195 |
| CCn1cc(N)c(-c2nnc3n2CCCC3)n1 | > 195 |
| NC(=O)C1(CCCc2ccccn2)CCCN(Cc2ccncc2)C1 (configuration not stated) | > 195 |
| Cc1cc(C[C@@H]2COC[C@H]2NCc2ccc(Cl)c(Cl)c2)on1 | > 195 |
| COCCN1CC(C(=O)N(C)Cc2ccc(Cl)s2)CC1=O (configuration not stated) | > 195 |
| Cc1nn(C)cc1C(=O)N1CCC(CSc2ccccc2)C1 (configuration not stated) | > 195 |
| CC1CCCCN1c1nc2c(c(=O)[nH]1)CCN(Cc1ccccc1O)C2 (configuration not stated) | > 195 |
| CNC(=O)c1nc(CN2CCOC(C(F)(F)F)C2)no1 (configuration not stated) | > 195 |
| CC(=O)N1CCC(Cc2cnc(C(=O)N3CCCC3)cn2)C1 (configuration not stated) | > 195 |
| O=C(NCC1=CCCCC1)C(c1cccnc1)N1CCCC1 (configuration not stated) | > 195 |
| CNC(=O)CCc1cc(C)nc(C2CCCCN2)n1 (configuration not stated) | > 195 |
| CN(CCc1ccccn1)C(=O)Nc1cc(C(F)(F)F)c[nH]c1=O | > 195 |
| O=C(c1cc2c(s1)CCC2)N1CCCC(c2cnccn2)C1 (configuration not stated) | > 195 |
| CC(=O)N1CCc2nc(-c3ccc(F)cc3)nc(NC(C)C)c2CC1 | > 195 |
| CC(C)CC(=O)N1CC(=O)N(CCc2ccccc2)CC(O)C1 (configuration not stated) | > 195 |
| O=C(N[C@@H]1CN(Cc2ccc3[nH]ccc3c2)C[C@H]1O)c1cscn1 | > 195 |
| COc1cccc(CNCc2cccnc2)c1 | > 195 |
| Cc1c(Br)cc2c(c1C)OCC(N(C)C)C2=O (configuration not stated) | > 195 |
| CN(C)C(=O)N1CC[C@@H](c2ccc3ccccc3c2)[C@H](O)C1 | > 195 |
| COc1ccccc1NC(=O)NCc1cn[nH]c1 | > 195 |
| CC1CCN(CCCNC(=O)NC(C)c2nncn2C)CC1 (configuration not stated) | > 195 |

| Structure (SMILES) | IC50 [µM] |
| --- | --- |
| c1cnc(N2CCO[C@H]3CN(CC4CCOC4)C[C@H]32)cn1 (some centres not stated) | > 195 |
| Cc1ccc(Cn2cc(C)c(N)n2)cc1 | > 195 |
| CCN1Cc2cc(F)ccc2N(CC(O)C(F)(F)F)CCC1=O (configuration not stated) | > 195 |
| CC(=O)N(C)C(c1cccc(F)c1)c1ccccn1 (configuration not stated) | > 195 |
| CC(=O)c1cc2ncc(C(=O)NC3CC3)cc2[nH]1 | > 195 |
| CS(=O)(=O)N1C[C@@H]2CCN(C(=O)c3cscn3)[C@@H]2C1 | > 195 |
| O=C(N[C@@H]1CCC[C@@H](N2CCCC2)[C@@H]1O)c1cc2ccccc2[nH]1 | > 195 |
| Fc1ccc2c(c1)C1(CCNCC1)CC2NC1CC1 (configuration not stated) | > 195 |
| O=C(CC1CC1)N1CCC2(CC1)C(=O)NCCN2Cc1ccccc1 | > 195 |
| CCN1CCC2(CC1)CC(CC(=O)N(C)C)c1ccc(F)cc12 (configuration not stated) | > 195 |
| COc1c(C(=O)N2CCC(CSc3ccccc3)C2)c(C)nn1C (configuration not stated) | > 195 |
| Cc1cccc(CN2CCCC2c2cccc(CCC(=O)O)n2)c1 (configuration not stated) | > 195 |
| COc1ccccc1OCCc1nnc(NC(=O)C2CC23CCC3)s1 (configuration not stated) | > 195 |
| COCCN1CCC(c2cncc(N(C)C)n2)CC1 | > 195 |
| Cc1nc(C(=O)NCc2ccccn2)cc(C2CCCN2)n1 (configuration not stated) | > 195 |
| CCc1ccc(C(=O)N2CCN(CC(O)CC)CC2)o1 (configuration not stated) | > 195 |
| O=C1NCC[C@]12CN(Cc1ccco1)C[C@H]2c1ccccc1 | > 195 |
| CO[C@H]1CN(Cc2ccc(F)c(F)c2)C[C@@]12CCCO2 | > 195 |
| COc1cc(CN2CC[C@H](NC(C)=O)[C@@H](O)CC2)ccc1F | > 195 |
| CC(=O)NC1CCCN(C(=O)CCc2cccnc2)C1 (configuration not stated) | > 195 |
| CC(=O)NC(=O)C1(CCCc2ccncc2)CCN1 (configuration not stated) | > 195 |
| Cn1ccc(C(=O)N2CCCC2c2[nH]ncc2C(N)=O)n1 (configuration not stated) | > 195 |
| O=C(Cc1cccc(O)c1)N1CCCC(O)(CN2CCOCC2)CC1 (configuration not stated) | > 195 |
